{
  "source": "paper PMC5433438",
  "about": "(Bioorganic & Medicinal Chemistry, 2015)",
  "target": "HKU4-CoV 3CL^pro (Bat coronavirus HKU4, UniProt P0C6W3)",
  "sequence (P0C6W3 3292-3597 limits assumed)": "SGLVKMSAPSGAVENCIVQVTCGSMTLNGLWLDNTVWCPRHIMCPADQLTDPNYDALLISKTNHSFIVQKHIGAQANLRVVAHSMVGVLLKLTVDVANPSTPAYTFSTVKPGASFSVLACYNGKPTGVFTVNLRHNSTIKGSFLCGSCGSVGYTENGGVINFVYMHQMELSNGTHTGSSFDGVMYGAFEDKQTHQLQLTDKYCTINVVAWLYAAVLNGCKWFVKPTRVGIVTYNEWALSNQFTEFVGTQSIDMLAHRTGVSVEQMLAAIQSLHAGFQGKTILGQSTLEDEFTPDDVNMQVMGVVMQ",
  "type": "biochemical, Tylonycteris bat coronavirus HKU4",
  "data": [
    {"smiles": "O=C(Nc1ccc(N(Cc2ccsc2)C(=O)Cn2nnc3ccccc32)cc1)c1cccs1", "note": "[1A]", "values": [
      {"measurement": "IC50 (μM)", "value": "sub-micromolar"}
    ]},
    {"smiles": "O=C(Nc1ccc(N(Cc2ccsc2)C(=O)Cn2nnc3ccccc32)cc1)c1ccccc1", "note": "[2A]", "values": [
      {"measurement": "IC50 (μM)", "value": "sub-micromolar"}
    ]},
    {"smiles": "CC(=O)Nc1ccc(N(C(=O)Cn2nnc3ccccc32)C(C(=O)NC(C)(C)C)c2ccsc2)cc1", "note": "(stereo not shown) [3B]", "values": [
      {"measurement": "increase in IC50", "value": 5, "unit": "fold"}
    ]},
    {"smiles": "O=C(Cn1nnc2ccccc21)N(Cc1ccsc1)c1ccc(-c2ccncc2)cc1", "note": "[5A]", "values": [
      {"measurement": "fold more active", "value": 2, "unit": "fold"}
    ]},
    {"smiles": "O=C(Cn1nnc2ccccc21)N(Cc1ccsc1)c1ccc(NCc2ccccc2)cc1", "note": "[17A]", "values": [
      {"measurement": "increase in IC50", "value": 10, "unit": "fold"}
    ]},
    {"smiles": "CC(C)C(=O)Nc1ccc(N(Cc2ccsc2)C(=O)Cn2ccnn2)cc1", "note": "[19A]", "values": [
      {"measurement": "decrease in inhibitory potency between the analogs", "value": "ten-fold"}
    ]},
    {"smiles": "O=C(Cn1nnc2ccccc21)NCc1ccsc1", "note": "[22A, 2-(1H-Benzo[d][1,2,3]triazol-1-yl)-N-(thiophen-3-ylmethyl)acetamide]", "values": [
      {"measurement": "increase in IC50", "value": "greater than 200 fold"}
    ]}
  ]
}
